From ChEMBL document CHEMBL3526141, “Characterization of human liver enzymes involved in the biotransformation of boceprevir, a hepatitis C virus protease inhibitor” (Drug Metab Dispos, 2011)

B1: Aldo-keto reductase family 1 member C2 (Homo sapiens) (protein)
chain: MDSKYQCVKLNDGHFMPVLGFGTYAPAEVPKSKALEAVKLAIEAGFHHIDSAHVYNNEEQVGLAIRSKIADGSVKREDIFYTSKLWSNSHRPELVRPALERSLKNLQLDYVDLYLIHFPVSVKPGEEVIPKDENGKILFDTVDLCATWEAMEKCKDAGLAKSIGVSNFNHRLLEMILNKPGLKYKPVCNQVECHPYFNQRKLLDFCKSKDIVLVAYSALGSHREEPWVDPNSPVLLEDPVLCALAKKHKRTPALIALRYQLQRGVVVLAKSYNEQRIRQNVQVFEFQLTSEEMKAIDGLNRNVRYLTLDIFAGPPNYPFSDEY

What was measured:
Cytochrome P450 3A4 [1] = target: T1, Cytochrome P450 3A4 (Homo sapiens, UniProt P08684); assay: Drug metabolism assessed as human CYP3A4-mediated compound formation from 20 uM [14C]boceprevir after 120 mins by LC-MS/FSA method relative to total [14C]boceprevir; assay type: ADME; conditions: recombinant enzyme, 2 h
Plasma = assay: Drug metabolism in human plasma treated with [14C]boceprevir assessed as ratio of drug level by LC-MS/MS method relative to boceprevir; assay type: ADME, cell-free
Cytochrome P450 3A5 [2] = target: T2, Cytochrome P450 3A5 (Homo sapiens, UniProt P20815); assay: Drug metabolism assessed as human CYP3A5-mediated compound formation from 5 uM [14C]boceprevir after 120 mins by LC-MS/FSA method relative to total [14C]boceprevir; assay type: ADME; conditions: recombinant enzyme, 2 h
Cytochrome P450 3A4 [3] = target: T1, Cytochrome P450 3A4; assay: Drug metabolism assessed as human CYP3A4-mediated compound formation from 5 uM [14C]boceprevir after 120 mins by LC-MS/FSA method relative to total [14C]boceprevir; assay type: ADME; conditions: recombinant enzyme, 2 h
Liver microsome [4] = assay: Drug metabolism in human liver microsomes treated with 20 uM [14C]boceprevir assessed as compound formation by LC-MS/FSA method relative to total [14C]boceprevir; assay type: ADME
Cytochrome P450 2B6 = target: T3, Cytochrome P450 2B6 (Homo sapiens, UniProt P20813); assay: Drug metabolism assessed as human CYP2B6-mediated compound formation from 5 uM [14C]boceprevir after 120 mins by LC-MS/FSA method relative to total [14C]boceprevir; assay type: ADME; conditions: recombinant enzyme, 2 h
T3 sequence (P20813 whole entry): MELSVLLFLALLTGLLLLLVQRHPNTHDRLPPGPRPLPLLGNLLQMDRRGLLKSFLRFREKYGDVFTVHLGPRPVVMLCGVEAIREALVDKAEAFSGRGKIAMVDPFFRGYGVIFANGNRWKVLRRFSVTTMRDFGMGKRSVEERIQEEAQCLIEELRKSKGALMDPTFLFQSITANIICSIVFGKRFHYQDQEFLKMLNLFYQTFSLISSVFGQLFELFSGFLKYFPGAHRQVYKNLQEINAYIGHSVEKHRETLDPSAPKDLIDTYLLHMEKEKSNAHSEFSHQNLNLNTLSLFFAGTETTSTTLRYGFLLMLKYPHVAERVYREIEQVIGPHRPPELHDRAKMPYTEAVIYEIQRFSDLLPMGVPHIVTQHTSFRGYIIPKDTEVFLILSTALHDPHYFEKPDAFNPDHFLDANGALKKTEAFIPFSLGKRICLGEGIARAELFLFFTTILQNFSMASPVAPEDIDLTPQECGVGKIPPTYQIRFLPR

Liver microsome [5] = assay: Drug metabolism in human liver microsomes treated with 5 uM [14C]boceprevir assessed as compound formation by LC-MS/FSA method relative to total [14C]boceprevir; assay type: ADME
Liver cytosol [6] = assay: Drug metabolism in human liver cytosol assessed as (1R,2S,5S)-N-((2S,3R)-4-amino-1-cyclobutyl-3-hydroxy-4-oxobutan-2-yl)-3-((S)-2-(3-tert-butylureido)-3,3-dimethylbutanoyl)-6,6-dimethyl-3-azabicyclo[3.1.0]hexane-2-carboxamide formation per mg protein after 60 mins by LC-MS/MS/FSA method; assay type: ADME, tissue-based; conditions: 1 h
Cytochrome P450 4F3 = target: T4, Cytochrome P450 4F3 (Homo sapiens, UniProt Q08477); assay: Drug metabolism assessed as human CYP4F3A-mediated compound formation from 5 uM [14C]boceprevir after 120 mins by LC-MS/FSA method relative to total [14C]boceprevir; assay type: ADME; conditions: recombinant enzyme, 2 h
T4 sequence (Q08477 whole entry): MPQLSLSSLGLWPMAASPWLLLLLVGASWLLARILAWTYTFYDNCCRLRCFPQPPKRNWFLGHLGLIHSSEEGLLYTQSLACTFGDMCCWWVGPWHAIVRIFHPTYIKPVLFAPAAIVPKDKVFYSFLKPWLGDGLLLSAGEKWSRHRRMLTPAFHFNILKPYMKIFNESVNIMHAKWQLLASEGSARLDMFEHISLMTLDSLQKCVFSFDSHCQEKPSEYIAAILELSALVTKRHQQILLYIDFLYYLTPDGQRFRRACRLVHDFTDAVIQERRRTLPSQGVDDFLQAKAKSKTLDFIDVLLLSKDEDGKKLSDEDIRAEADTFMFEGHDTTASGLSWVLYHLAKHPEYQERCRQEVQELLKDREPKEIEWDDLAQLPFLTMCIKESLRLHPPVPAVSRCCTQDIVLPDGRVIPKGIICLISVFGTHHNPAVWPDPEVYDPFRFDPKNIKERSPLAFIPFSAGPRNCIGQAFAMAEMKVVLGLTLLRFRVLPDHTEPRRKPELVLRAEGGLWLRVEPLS

Liver cytosol [7] = assay: Drug metabolism in human liver cytosol assessed as (1R,2S,5S)-N-((2S,3R)-4-amino-1-cyclobutyl-3-hydroxy-4-oxobutan-2-yl)-3-((S)-2-(3-tert-butylureido)-3,3-dimethylbutanoyl)-6,6-dimethyl-3-azabicyclo[3.1.0]hexane-2-carboxamide formation after 60 mins by LC-MS/MS/FSA method; assay type: ADME, tissue-based; conditions: 1 h
Cytochrome P450 2D6 = Cytochrome P450 2D6 (Homo sapiens, UniProt P10635); assay: Drug metabolism assessed as human CYP2D6-mediated compound formation from 5 uM [14C]boceprevir after 120 mins by LC-MS/FSA method relative to total [14C]boceprevir; assay type: ADME; conditions: recombinant enzyme, 2 h
Cytochrome P450 3A5 [8] = target: T2, Cytochrome P450 3A5; assay: Drug metabolism assessed as human CYP3A5-mediated compound formation from 20 uM [14C]boceprevir after 120 mins by LC-MS/FSA method relative to total [14C]boceprevir; assay type: ADME; conditions: recombinant enzyme, 2 h
Cytochrome P450 2C19 = Cytochrome P450 2C19 (Homo sapiens, UniProt P33261); assay: Drug metabolism assessed as human CYP2C19-mediated compound formation from 5 uM [14C]boceprevir after 120 mins by LC-MS/FSA method relative to total [14C]boceprevir; assay type: ADME; conditions: recombinant enzyme, 2 h
[9] = Retention time of the compound by LC-MS/MS method; assay type: physicochemical
Liver cytosol [10] = assay: Ratio of Vmax to Km for drug metabolism in human liver cytosol assessed as (1R,2S,5S)-N-((2S,3R)-4-amino-1-cyclobutyl-3-hydroxy-4-oxobutan-2-yl)-3-((S)-2-(3-tert-butylureido)-3,3-dimethylbutanoyl)-6,6-dimethyl-3-azabicyclo[3.1.0]hexane-2-carboxamide formation per mg protein after 60 mins by LC-MS/MS/FSA method; assay type: ADME; conditions: 1 h
Cytochrome P450 1A2 = target: T5, Cytochrome P450 1A2 (Homo sapiens, UniProt P05177); assay: (§1) Drug metabolism assessed as human […]-mediated compound formation from 5 uM [14C]boceprevir after 120 mins by LC-MS/FSA method relative to total [14C]boceprevir; assay type: ADME; conditions: recombinant enzyme, 2 h
T5 sequence (P05177 whole entry): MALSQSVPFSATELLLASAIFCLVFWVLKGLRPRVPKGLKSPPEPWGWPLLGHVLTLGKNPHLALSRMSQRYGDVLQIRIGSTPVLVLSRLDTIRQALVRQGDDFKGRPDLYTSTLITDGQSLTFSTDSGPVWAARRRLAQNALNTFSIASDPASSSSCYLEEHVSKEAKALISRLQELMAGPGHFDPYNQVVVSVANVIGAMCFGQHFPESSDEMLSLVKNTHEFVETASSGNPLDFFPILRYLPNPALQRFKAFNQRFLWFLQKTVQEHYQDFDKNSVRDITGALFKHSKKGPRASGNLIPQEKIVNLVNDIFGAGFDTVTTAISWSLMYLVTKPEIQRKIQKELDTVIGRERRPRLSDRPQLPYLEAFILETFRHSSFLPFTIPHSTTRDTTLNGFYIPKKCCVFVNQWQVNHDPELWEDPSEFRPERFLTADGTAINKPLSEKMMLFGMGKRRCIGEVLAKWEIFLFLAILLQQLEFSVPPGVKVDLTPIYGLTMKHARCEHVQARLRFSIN

Cytochrome P450 1A1 = target: T6, Cytochrome P450 1A1 (Homo sapiens, UniProt P04798); assay: as §1; assay type: ADME; conditions: recombinant enzyme, 2 h
T6 sequence (P04798 whole entry): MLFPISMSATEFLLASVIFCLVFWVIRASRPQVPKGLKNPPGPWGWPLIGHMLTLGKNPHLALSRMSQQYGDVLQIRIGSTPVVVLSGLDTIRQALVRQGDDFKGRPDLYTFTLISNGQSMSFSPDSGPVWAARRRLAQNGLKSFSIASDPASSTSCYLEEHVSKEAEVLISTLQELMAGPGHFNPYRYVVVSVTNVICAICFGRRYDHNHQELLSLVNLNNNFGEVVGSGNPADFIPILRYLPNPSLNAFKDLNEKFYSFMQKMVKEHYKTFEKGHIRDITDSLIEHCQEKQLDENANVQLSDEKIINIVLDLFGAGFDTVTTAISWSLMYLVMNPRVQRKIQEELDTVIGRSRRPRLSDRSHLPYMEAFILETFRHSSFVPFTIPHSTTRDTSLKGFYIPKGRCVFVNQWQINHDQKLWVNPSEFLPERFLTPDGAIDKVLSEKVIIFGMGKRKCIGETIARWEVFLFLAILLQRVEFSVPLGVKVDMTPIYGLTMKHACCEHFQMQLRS

Liver cytosol [11] = assay: Drug metabolism in human liver cytosol assessed as (1R,2S,5S)-N-((2R,3R)-4-amino-1-cyclobutyl-3-hydroxy-4-oxobutan-2-yl)-3-((S)-2-(3-tert-butylureido)-3,3-dimethylbutanoyl)-6,6-dimethyl-3-azabicyclo[3.1.0]hexane-2-carboxamide formation per mg protein after 60 mins by LC-MS/MS/FSA method; assay type: ADME, tissue-based; conditions: 1 h
Liver cytosol [12] = assay: Drug metabolism in human liver cytosol assessed as (1R,2S,5S)-N-((2R,3R)-4-amino-1-cyclobutyl-3-hydroxy-4-oxobutan-2-yl)-3-((S)-2-(3-tert-butylureido)-3,3-dimethylbutanoyl)-6,6-dimethyl-3-azabicyclo[3.1.0]hexane-2-carboxamide formation after 60 mins by LC-MS/MS/FSA method; assay type: ADME, tissue-based; conditions: 1 h
Liver cytosol [13] = assay: Ratio of Vmax to Km for drug metabolism in human liver cytosol assessed as (1R,2S,5S)-N-((2R,3R)-4-amino-1-cyclobutyl-3-hydroxy-4-oxobutan-2-yl)-3-((S)-2-(3-tert-butylureido)-3,3-dimethylbutanoyl)-6,6-dimethyl-3-azabicyclo[3.1.0]hexane-2-carboxamide formation per mg protein after 60 mins by LC-MS/MS/FSA method; assay type: ADME; conditions: 1 h
[14] = substrate: CC(C)(C)NC(=O)N[C@H](C(=O)N1C[C@H]2[C@@H]([C@H]1C(=O)NC(CC1CCC1)C(=O)C(N)=O)C2(C)C)C(C)(C)C; assay: Activity of human recombinant AKR1C2 expressed in HEK293 cells assessed as (1R,2S,5S)-N-((2S,3R)-4-amino-1-cyclobutyl-3-hydroxy-4-oxobutan-2-yl)-3-((S)-2-(3-tert-butylureido)-3,3-dimethylbutanoyl)-6,6-dimethyl-3-azabicyclo[3.1.0]hexane-2-carboxamide formation after 120 mins in presence of NADPH by LC-MS/MS/FSA method; assay type: ADME, cell-based

T2 sequence (P20815 whole entry): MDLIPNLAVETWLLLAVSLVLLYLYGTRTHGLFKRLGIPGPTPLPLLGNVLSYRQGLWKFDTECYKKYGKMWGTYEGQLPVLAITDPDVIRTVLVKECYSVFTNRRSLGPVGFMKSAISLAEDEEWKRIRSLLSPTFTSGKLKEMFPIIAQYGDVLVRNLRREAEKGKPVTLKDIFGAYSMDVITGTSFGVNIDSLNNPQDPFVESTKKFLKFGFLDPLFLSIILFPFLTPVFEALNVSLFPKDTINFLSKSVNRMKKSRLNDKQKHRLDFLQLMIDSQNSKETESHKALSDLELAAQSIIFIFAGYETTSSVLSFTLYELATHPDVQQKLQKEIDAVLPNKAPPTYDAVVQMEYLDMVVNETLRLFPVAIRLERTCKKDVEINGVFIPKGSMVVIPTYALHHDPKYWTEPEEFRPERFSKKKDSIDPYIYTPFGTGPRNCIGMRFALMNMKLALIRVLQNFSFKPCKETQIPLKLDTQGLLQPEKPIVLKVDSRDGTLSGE
T1 sequence (P08684 whole entry): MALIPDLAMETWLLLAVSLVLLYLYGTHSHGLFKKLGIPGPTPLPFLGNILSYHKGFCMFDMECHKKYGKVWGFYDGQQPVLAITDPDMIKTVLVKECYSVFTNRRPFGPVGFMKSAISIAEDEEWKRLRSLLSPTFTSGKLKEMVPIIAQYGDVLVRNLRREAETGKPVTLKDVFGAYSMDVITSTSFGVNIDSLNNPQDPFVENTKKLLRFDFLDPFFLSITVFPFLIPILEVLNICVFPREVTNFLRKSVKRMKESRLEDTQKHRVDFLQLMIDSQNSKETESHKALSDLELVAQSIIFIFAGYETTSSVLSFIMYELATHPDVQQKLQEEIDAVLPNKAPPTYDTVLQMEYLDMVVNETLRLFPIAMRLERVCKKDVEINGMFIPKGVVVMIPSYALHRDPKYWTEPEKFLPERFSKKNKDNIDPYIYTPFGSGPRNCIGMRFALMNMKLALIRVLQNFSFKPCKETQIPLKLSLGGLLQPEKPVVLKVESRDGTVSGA
Cytochrome P450 2C19, sequence (P33261 whole entry): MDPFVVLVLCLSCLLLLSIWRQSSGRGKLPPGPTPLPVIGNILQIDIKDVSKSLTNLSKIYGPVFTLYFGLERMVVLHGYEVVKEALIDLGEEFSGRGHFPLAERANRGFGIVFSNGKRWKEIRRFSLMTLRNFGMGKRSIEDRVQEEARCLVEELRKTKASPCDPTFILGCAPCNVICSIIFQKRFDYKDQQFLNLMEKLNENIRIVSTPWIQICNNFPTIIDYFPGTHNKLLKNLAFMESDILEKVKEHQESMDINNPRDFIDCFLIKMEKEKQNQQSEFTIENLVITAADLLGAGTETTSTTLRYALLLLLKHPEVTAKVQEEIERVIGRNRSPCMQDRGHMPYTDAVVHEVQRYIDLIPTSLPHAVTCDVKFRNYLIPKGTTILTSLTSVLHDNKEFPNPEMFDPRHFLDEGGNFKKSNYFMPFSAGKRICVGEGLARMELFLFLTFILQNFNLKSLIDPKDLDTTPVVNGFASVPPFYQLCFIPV
Cytochrome P450 2D6, sequence (P10635 whole entry): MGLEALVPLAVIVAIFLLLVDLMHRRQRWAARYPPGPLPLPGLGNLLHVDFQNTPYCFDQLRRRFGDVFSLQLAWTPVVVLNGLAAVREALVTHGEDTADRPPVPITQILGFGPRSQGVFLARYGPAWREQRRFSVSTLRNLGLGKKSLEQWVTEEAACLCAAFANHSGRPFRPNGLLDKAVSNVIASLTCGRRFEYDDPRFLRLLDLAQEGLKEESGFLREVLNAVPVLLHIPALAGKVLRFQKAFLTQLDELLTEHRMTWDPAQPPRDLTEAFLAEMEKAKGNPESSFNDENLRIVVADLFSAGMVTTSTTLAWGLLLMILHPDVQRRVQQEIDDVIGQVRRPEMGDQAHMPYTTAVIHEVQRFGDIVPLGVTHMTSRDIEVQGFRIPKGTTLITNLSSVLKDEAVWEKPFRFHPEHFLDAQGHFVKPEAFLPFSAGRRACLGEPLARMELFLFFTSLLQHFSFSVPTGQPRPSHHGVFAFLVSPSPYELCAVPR

Row | Molecule | Compound recovery (Cytochrome P450 3A4 [1]) | Compound recovery (Plasma) | Compound recovery (Cytochrome P450 3A5 [2]) | Compound recovery (Liver microsome [4]) | Compound recovery (Cytochrome P450 2B6) | Compound recovery (Liver microsome [5]) | Vmax (Liver cytosol [6]) | Compound recovery (Cytochrome P450 4F3) | Km (Liver cytosol [7]) | Compound recovery (Cytochrome P450 2D6) | Compound recovery (Cytochrome P450 3A5 [8]) | Compound recovery (Cytochrome P450 2C19) | Retention_time [9] | Vmax/Km (Liver cytosol [10]) | Compound recovery (Cytochrome P450 1A2) | Compound recovery (Cytochrome P450 1A1) | Compound recovery (Cytochrome P450 3A4 [3]) | also measured
1 | CC(C)(C)NC(=O)N[C@H](C(=O)N1C[C@H]2[C@@H]([C@H]1C(=O)N[C@@H](CC1CCC1)C(=O)C(N)=O)C2(C)C)C(C)(C)C [BOCEPREVIR] | 37.98% | >= 50% | 0.98% | 26.12% | 56.54% | 0.21% | 0.361 pmol/min | 57.31% | 35.5 µM | 57.22% | 38.77% | 60.3% | 42.8 min | 10.2 µL/min | 59.66% | 55.46% | – | Compound recovery (Cytochrome P450 3A4 [3]; BLD = below limit of detection): BLD
2 | CC(C)(C)NC(=O)N[C@H](C(=O)N1C[C@H]2[C@@H]([C@H]1C(N)=O)C2(C)C)C(C)(C)C | < 4.64% | 10% | 15.74% | – | 2.06% | – | – | 0.61% | – | 1.9% | 2.87% | – | 22.2 min | – | 1.37% | 2.9% | < 3.45% | –
3 | CC(C)(C)NC(=O)N[C@H](C(=O)N1C[C@H]2[C@@H]([C@H]1C(=O)O)C2(C)C)C(C)(C)C | 0.58% | <= 10% | 2.22% | 1.1% | 0.22% | 4.2% | – | 0.24% | – | – | < 0.81% | 0.29% | 16.6 min | – | 0.29% | 0.33% | 4.57% | –
4 | CC(C)(C)NC(=O)N[C@H](C(=O)N1C[C@H]2[C@@H]([C@H]1C(=O)NC(CC1CCC1)C(=O)C(N)=O)C2(C)C)C(C)(C)C (stereo in doubt) [BOCEPREVIR] | – | – | – | – | – | – | 28.6 pmol/min | – | 13 µM | – | – | – | – | 2.2 µL/min | – | – | – | Vmax (Liver cytosol [11]): 34.9 pmol/min; Km (Liver cytosol [12]): 12.5 µM; Vmax/Km (Liver cytosol [13]): 2.8 µL/min
5 | B1 | – | – | – | – | – | – | – | – | – | – | – | – | – | – | – | – | – | Km [14]: 52.3 µM; Vmax [14]: 4.07e-05 µmol/min
